These results are taken from patent publication US20240360165A1, “INHIBITORS OF CYCLIN DEPENDENT KINASE 7 (CDK7)” (Syros Pharmaceuticals, Inc., priority 2016, published 2024).

The target in test [1] is CDK7/Cyclin H/MAT1 complex (Homo sapiens, UniProt P50613). The test can be described thus: CDK7 inhibition assay (Caliper/LabChip EZ Reader kinase assay). The test is classed as biochemical. Particulars: Table 1; CDK7/Cyclin H/MAT1 6 nM, ATP 2 mM, 35 min at 27° C. A digest of the protocol: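 A Perkin Elmer Caliper/LabChip EZ Reader (Waltham, MA) platform served as the basis for this CDK7 kinase inhibition assay. The work was carried out by Biortus Biosciences, located in Jiangyin, Jiangsu Province, P.R. of China. Each CDK studied had its own kinase assay, and compounds were evaluated for their ability to block CDK7 activity.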
Sequence of CDK7/Cyclin H/MAT1 complex (P50613 whole entry, species assumed): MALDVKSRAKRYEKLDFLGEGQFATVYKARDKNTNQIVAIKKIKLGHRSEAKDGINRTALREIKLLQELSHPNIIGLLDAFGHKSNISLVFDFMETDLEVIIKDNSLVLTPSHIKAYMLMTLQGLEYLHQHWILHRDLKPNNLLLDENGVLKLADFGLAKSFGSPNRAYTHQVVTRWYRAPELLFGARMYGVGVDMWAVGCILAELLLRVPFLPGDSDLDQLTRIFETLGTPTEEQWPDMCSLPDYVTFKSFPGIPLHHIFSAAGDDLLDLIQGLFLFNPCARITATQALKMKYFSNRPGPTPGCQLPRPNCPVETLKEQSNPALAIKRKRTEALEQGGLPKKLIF
Sequence of CDK7/Cyclin H/MAT1 complex (P51946 whole entry partner, species assumed): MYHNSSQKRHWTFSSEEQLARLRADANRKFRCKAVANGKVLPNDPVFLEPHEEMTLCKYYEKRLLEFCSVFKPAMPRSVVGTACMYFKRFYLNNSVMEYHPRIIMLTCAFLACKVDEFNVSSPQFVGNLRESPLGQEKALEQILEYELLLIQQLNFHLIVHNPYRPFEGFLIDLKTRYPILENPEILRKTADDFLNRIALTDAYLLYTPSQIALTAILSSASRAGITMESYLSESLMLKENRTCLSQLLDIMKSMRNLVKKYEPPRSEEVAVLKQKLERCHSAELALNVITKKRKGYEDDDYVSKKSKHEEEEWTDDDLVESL
Sequence of CDK7/Cyclin H/MAT1 complex (P51948 whole entry partner, species assumed): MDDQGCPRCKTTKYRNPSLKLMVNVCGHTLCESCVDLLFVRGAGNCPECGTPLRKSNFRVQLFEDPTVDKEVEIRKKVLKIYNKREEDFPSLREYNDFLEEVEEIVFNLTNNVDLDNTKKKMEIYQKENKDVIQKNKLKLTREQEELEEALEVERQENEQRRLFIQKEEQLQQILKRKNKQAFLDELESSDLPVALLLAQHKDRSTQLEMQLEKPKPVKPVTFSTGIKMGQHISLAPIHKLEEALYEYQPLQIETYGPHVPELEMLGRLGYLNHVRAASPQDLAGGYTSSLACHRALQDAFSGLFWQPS

For test [2], the target named is CDK2/Cyclin E1 complex (Homo sapiens, UniProt P24941). The test can be described thus: CDK2 inhibition assay (Caliper/LabChip EZ Reader kinase assay). It counts as biochemical. To be noted: Table 1; CDK2/Cyclin E1 0.5 nM, ATP 2 mM, 35 min at 27° C. The method in brief: (§1)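 Caliper/LabChip EZ Reader mobility-shift assays. CDK9/Cyclin T1 at 8 nM with 2 μM 5-FAM-CDK9tide peptide and 10 mM MgCl2; CDK2/Cyclin E1 at 0.5 nM with 2 μM 5-FAM-CDK7tide and 2 mM MgCl2.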

The target of test [3] is T1, CDK12 (aa686-1082)/Cyclin K complex (Homo sapiens, UniProt Q9NYV4).
T1 construct: CDK12 (aa686-1082)/Cyclin K complex
T1 sequence (Q9NYV4 686-1082, species assumed): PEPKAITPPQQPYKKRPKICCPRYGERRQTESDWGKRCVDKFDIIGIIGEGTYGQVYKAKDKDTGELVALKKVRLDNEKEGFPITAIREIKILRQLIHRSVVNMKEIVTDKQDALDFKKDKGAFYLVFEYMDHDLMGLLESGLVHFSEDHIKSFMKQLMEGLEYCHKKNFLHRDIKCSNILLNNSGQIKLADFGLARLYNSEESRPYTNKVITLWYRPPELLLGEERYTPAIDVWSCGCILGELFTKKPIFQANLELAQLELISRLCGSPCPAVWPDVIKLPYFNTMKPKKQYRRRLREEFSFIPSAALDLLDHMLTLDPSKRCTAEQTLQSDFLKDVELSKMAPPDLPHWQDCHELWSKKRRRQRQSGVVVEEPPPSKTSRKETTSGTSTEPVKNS
T1 sequence (O75909 whole entry partner, species assumed, the tested form may be a part): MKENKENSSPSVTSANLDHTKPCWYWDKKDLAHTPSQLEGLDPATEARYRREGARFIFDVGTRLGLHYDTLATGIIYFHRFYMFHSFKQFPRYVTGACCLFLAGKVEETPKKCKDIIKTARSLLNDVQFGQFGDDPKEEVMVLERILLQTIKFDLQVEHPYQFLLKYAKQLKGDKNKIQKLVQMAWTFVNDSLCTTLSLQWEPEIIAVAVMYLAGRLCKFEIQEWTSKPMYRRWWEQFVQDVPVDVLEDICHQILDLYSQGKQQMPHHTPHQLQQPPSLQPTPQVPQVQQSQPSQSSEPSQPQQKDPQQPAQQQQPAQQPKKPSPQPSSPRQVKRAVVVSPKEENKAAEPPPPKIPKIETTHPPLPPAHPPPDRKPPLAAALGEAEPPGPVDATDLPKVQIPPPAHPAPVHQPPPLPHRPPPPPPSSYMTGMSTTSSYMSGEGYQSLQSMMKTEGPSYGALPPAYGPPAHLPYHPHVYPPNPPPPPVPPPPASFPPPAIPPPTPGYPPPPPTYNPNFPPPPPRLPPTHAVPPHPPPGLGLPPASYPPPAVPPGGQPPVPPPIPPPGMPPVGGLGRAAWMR
The experiment in a line: CDK12 inhibition assay (Caliper/LabChip EZ Reader kinase assay). It counts as biochemical. To be noted: Table 1; CDK12 (aa686-1082)/Cyclin K 50 nM, ATP 2 mM, 3 hr at 27° C.

Test [4] has as its system HCC70 cells. The experiment in a line: Inhibition of proliferation of HCC70 cells (CyQUANT Direct Cell Proliferation Assay, 72 hour). To be noted: read-out: Inhibition of Proliferation of HCC70 Cells (calculated IC50). It counts as cell-based, human. The method in brief: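 Human triple-negative breast cancer HCC70 cells cultured at 37° C, 5% CO2, with compound for 72 hour. Anti-proliferative effect read by CyQUANT Direct Cell Proliferation Assay. Dinaciclib, a CDK inhibitor analog and triptolide served as positive controls.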

Test [5] concerns the target CDK9/Cyclin T1 complex (Homo sapiens, UniProt P50750). The test can be described thus: CDK9 inhibition assay (Caliper/LabChip EZ Reader kinase assay). It counts as biochemical. Particulars: Table 1; CDK9/Cyclin T1 8 nM, ATP 2 mM, 15 min at 27° C. The method in brief: as §1

Where two headings read alike, the source gives them in different places.

Sequence of CDK9/Cyclin T1 complex (P50750 whole entry, species assumed): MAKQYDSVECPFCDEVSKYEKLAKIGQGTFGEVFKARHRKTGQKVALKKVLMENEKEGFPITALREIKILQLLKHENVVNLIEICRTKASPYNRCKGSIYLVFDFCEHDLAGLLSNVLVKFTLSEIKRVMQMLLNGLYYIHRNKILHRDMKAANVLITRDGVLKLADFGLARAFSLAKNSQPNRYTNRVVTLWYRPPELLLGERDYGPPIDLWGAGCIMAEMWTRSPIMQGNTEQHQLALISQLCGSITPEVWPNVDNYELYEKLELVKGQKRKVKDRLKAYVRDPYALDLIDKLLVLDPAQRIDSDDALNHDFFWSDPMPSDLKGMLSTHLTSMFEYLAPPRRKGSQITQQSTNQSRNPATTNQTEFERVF
Sequence of CDK9/Cyclin T1 complex (O60563 whole entry partner, species assumed): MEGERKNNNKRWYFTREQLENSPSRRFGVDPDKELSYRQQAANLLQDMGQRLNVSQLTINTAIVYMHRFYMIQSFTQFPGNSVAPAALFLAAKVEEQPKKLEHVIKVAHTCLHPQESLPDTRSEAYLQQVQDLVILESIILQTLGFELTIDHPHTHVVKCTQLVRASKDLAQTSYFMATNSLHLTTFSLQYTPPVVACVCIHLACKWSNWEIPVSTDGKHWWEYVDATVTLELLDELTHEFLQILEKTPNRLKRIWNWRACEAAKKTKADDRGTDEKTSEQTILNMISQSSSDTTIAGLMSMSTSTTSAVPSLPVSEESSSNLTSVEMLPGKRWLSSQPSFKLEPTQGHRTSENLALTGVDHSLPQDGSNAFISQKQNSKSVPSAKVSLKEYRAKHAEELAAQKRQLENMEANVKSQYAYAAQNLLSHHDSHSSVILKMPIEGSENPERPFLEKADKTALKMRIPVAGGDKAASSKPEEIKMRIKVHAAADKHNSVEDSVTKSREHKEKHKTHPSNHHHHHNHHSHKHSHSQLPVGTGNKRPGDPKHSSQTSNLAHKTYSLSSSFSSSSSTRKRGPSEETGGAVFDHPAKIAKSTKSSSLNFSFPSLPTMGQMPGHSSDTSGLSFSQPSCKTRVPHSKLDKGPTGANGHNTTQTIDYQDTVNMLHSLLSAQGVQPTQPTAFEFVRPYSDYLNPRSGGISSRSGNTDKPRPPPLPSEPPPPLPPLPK

On to `FC(F)(F)c1cnc(N[C@H]2CCCNC2)nc1-c1c[nH]c2cc(-c3ccnc4ccccc34)ccc12` [Compound 339], for which the IC50 in test [1] was 20 to 200 nM; in test [2], > 5000 nM; in test [3], 200 to 5000 nM; in test [4] it was 1000 to 5000 nM; in test [5], > 5000 nM.

As for `FC(F)(F)c1cnc(N[C@H]2CCCNC2)nc1-c1c[nH]c2cc(-c3ccc4c(c3)OCCO4)ccc12` [Compound 342], the IC50 in test [1] is 20 to 200 nM; in test [2] it was > 5000 nM; in test [3] it was 200 to 5000 nM; in test [4] it was 1000 to 5000 nM; in test [5] it was > 5000 nM.

Take `FC(F)(F)c1cnc(N[C@H]2CCCNC2)nc1-c1c[nH]c2cc(-c3ccc4ncsc4c3)ccc12` [Compound 343]: the IC50 was 20 to 200 nM in test [1]; 200 to 5000 nM in test [2]; 200 to 5000 nM in test [3]; 100 to 1000 nM in test [4]; 200 to 5000 nM in test [5].

For the compound `FC(F)(F)c1cnc(N[C@H]2CCCNC2)nc1-c1c[nH]c2cc(-c3cccc4cnccc34)ccc12` [Compound 344], the IC50 in test [1] is 20 to 200 nM; in test [2] it was 200 to 5000 nM; in test [3], 200 to 5000 nM; in test [4], 100 to 1000 nM; in test [5], > 5000 nM.

For the compound `Fc1cccc(-c2ccc3c(-c4nc(N[C@H]5CCCNC5)ncc4C(F)(F)F)c[nH]c3c2)c1` [Compound 345], the IC50 in test [1] is 200 to 5000 nM; in test [2], > 5000 nM; in test [3] it was > 5000 nM; in test [4] (Homo sapiens, HCC70, 72 h) it was 1000 to 5000 nM; in test [5], > 5000 nM.

Consider `CC(C)S(=O)(=O)c1ccc2c(-c3nc(N[C@H]4CCCNC4)ncc3C(F)(F)F)c[nH]c2c1` [Compound 346, 4-(6-isopropylsulfonyl-1H-indol-3-yl)-N-[(3S)-3-piperidyl]-5-(trifluoromethyl) pyrimidin-2-amine], for which the IC50 in test [1] is 20 to 200 nM; in test [2], 200 to 5000 nM; in test [3], 200 to 5000 nM; in test [4] (Homo sapiens, HCC70, 72 h), 100 to 1000 nM; in test [5], 200 to 5000 nM.

For `O=C(c1ccc2c(-c3nc(N[C@H]4CCCNC4)ncc3C(F)(F)F)c[nH]c2c1)N1C[C@@H](O)C(F)(F)C1` [Compound 349, [(4R)-3,3-difluoro-4-hydroxy-pyrrolidin-1-yl]-[3-[2-[[(3S)-3-piperidyl]amino]-5-(trifluoromethyl)pyrimidin-4-yl]-1H-indol-6-yl] methanone], the IC50 in test [1] was < 20 nM; in test [2], 200 to 5000 nM; in test [3], 200 to 5000 nM; in test [4] (Homo sapiens, HCC70, 72 h), 100 to 1000 nM; in test [5], 200 to 5000 nM.

Take `CC1(C)CC[C@H](Nc2ncc(C(F)(F)F)c(-c3c[nH]c4cc(C#N)ccc34)n2)CN1` [Compound 350, (S)-3-(2-((6,6-dimethylpiperidin-3-yl)amino)-5-(trifluoromethyl)pyrimidin-4-yl)-1H-indole-6-carbonitrile]: the IC50 in test [1] was 20 to 200 nM; in test [2] it was > 5000 nM; in test [3] it was 200 to 5000 nM; in test [4] (Homo sapiens, HCC70, 72 h), 100 to 1000 nM; in test [5] it was > 5000 nM.

On to `N#Cc1ccc2c(-c3nc(N[C@@H]4CNCC[C@H]4F)ncc3C(F)(F)F)c[nH]c2c1` [Compound 351], for which the IC50 in test [1] was < 20 nM; in test [2], 200 to 5000 nM; in test [3], 200 to 5000 nM; in test [4] (Homo sapiens, HCC70, 72 h) it was < 100 nM; in test [5], 200 to 5000 nM.

On to `CP(C)(=O)c1cccc2c(-c3nc(N[C@H]4CCCNC4)ncc3C(F)(F)F)c[nH]c12` [Compound 352, (S)-dimethyl(3-(2-(piperidin-3-ylamino)-5-(trifluoromethyl)pyrimidin-4-yl)-1H-indol-7-yl)phosphine oxide], for which the IC50 in test [1] was > 5000 nM; in test [2] it was > 5000 nM; in test [3], > 5000 nM; in test [4] (Homo sapiens, HCC70, 72 h), 1000 to 5000 nM; in test [5], > 5000 nM.

For the compound `CP(C)(=O)c1ccc2c(-c3nc(N[C@H]4CCCNC4)ncc3C(F)(F)F)c[nH]c2c1` [Compound 354], the IC50 in test [1] is 20 to 200 nM; in test [2], > 5000 nM; in test [3] it was 200 to 5000 nM; in test [4] (Homo sapiens, HCC70, 72 h), 1000 to 5000 nM; in test [5], > 5000 nM.

Regarding `N#Cc1ccc2c(-c3nc(N[C@@H]4CNCC[C@H]4O)ncc3C(F)(F)F)c[nH]c2c1` [Compound 355], the IC50 is 20 to 200 nM in test [1]; > 5000 nM in test [2]; 200 to 5000 nM in test [3]; 100 to 1000 nM in test [4] (Homo sapiens, HCC70, 72 h); > 5000 nM in test [5].

Consider `CCc1cnc(N[C@H]2CCCNC2)nc1-c1c[nH]c2c(S(=O)(=O)C(C)C)cccc12` [Compound 356], for which the IC50 was 20 to 200 nM in test [1]; > 5000 nM in test [2]; > 5000 nM in test [3]; 100 to 1000 nM in test [4]; > 5000 nM in test [5].

In the case of `CN(C)S(=O)(=O)c1ccc2c(-c3nc(N[C@H]4CCCNC4)ncc3C(F)(F)F)c[nH]c2c1` [Compound 357, N,N-dimethyl-3-[2-[[(3S)-3-piperidyl]amino]-5-(trifluoromethyl)pyrimidin-4-yl]-1H-indole-6-sulfonamide], the IC50 in test [1] is < 20 nM; in test [2], 200 to 5000 nM; in test [3], 200 to 5000 nM; in test [4] (Homo sapiens, HCC70, 72 h) it was 1000 to 5000 nM; in test [5] it was 200 to 5000 nM.

Regarding `Cc1noc([C@H]2CC[C@H](Nc3ncc(C(F)(F)F)c(-c4c[nH]c5cc(C#N)ccc45)n3)CN2)n1` [Compound 358], the IC50 in test [1] is 20 to 200 nM; in test [2], > 5000 nM; in test [3] it was > 5000 nM; in test [4] (Homo sapiens, HCC70, 72 h), 100 to 1000 nM; in test [5] it was > 5000 nM.

Consider `CC(=O)c1ccc2c(-c3nc(N[C@H]4CCCNC4)ncc3C(F)(F)F)c[nH]c2c1` [Compound 359, 1-[3-[2-[[(3S)-3-piperidyl]amino]-5-(trifluoromethyl)pyrimidin-4-yl]-1H-indol-6-yl]ethanone], for which the IC50 in test [1] is < 20 nM; in test [2], 200 to 5000 nM; in test [3], 200 to 5000 nM; in test [4] (Homo sapiens, HCC70, 72 h) it was < 100 nM; in test [5] it was 200 to 5000 nM.

For the compound `CCc1cnc(N[C@H]2CCCNC2)nc1-c1c[nH]c2c(F)c(C#N)ccc12` [Compound 360, 3-[5-ethyl-2-[[(3S)-3-piperidyl]amino]pyrimidin-4-yl]-7-fluoro-1H-indole-6-carbonitrile], the IC50 is 20 to 200 nM in test [1]; > 5000 nM in test [2]; > 5000 nM in test [3]; 1000 to 5000 nM in test [4] (Homo sapiens, HCC70, 72 h); > 5000 nM in test [5].

Consider `N#Cc1ccc2c(-c3nc(N[C@H]4CCCNC4)ncc3SC(F)F)c[nH]c2c1` [Compound 361, 3-[5-(difluoromethylsulfanyl)-2-[[(3S)-3-piperidyl]amino]pyrimidin-4-yl]-1H-indole-6-carbonitrile], for which the IC50 in test [1] is 20 to 200 nM; in test [2], > 5000 nM; in test [3], 200 to 5000 nM; in test [4] (Homo sapiens, HCC70, 72 h), 100 to 1000 nM; in test [5] it was 200 to 5000 nM.

Consider `CN1CCC[C@H](Nc2ncc(C(F)(F)F)c(-c3c[nH]c4cc(S(C)(=O)=O)ccc34)n2)C1` [Compound 364, N-[(3S)-1-methyl-3-piperidyl]-4-(6-methylsulfonyl-1H-indol-3-yl)-5-(trifluoromethyl)pyrimidin-2-amine], for which the IC50 in test [1] is 20 to 200 nM; in test [2], > 5000 nM; in test [3] it was > 5000 nM; in test [4] (Homo sapiens, HCC70, 72 h), 1000 to 5000 nM; in test [5] it was > 5000 nM.
